Consider 49 compounds from patent publication US8853246B2 (Dow AgroSciences LLC, priority 2009, dated 2014).

SMILES strings stand for the structures. Some results are limits rather than exact numbers.

For assay [1], the system named is Green Peach Aphid (Myzus Persicae). Kind of assay: Insecticidal test for green peach aphid in foliar spray assay (col. MYZUPE). The class given is in vivo. The settings on record: green peach aphid; for pest or weed control at 200 ppm: Myzus persicae, 72 h, read-out: MYZUPE 200 ppm (Corrected % Control, rating). In short, it runs like this: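 Corrected % control derives from microscope counts of live aphids per plant, treated against diluent-only checks, 3 days after foliar spraying at ~25 °C and 40% RH. Test solution was 200 ppm in 0.025% aqueous Tween 20, applied to both leaf sides of infested cabbage seedlings, four pots each.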

The subject of assay [2] is Sweetpotato Whitefly-Crawler (Bemisia Tabaci). Kind of assay: Insecticidal test for sweetpotato whitefly-crawler in foliar spray assay (col. BEMITA). The settings on record: sweetpotato whitefly-crawler; for pest or weed control at 200 ppm: Bemisia tabaci, read-out: BEMITA 200 ppm (Corrected % Control, rating). The format is in vivo. In short, it runs like this:
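Percent control, Abbott-corrected against diluent-sprayed plants, from microscope counts of live nymphs 8-9 days after treatment. Test solution at 200 ppm in 0.025% aqueous Tween 20 applied to both leaf sides of egg-infested cotton after a 5-6 day hatch period (82° F, 50% RH).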

Turning to `CCN(C(=O)OC(C)(C)C)c1sc(-c2cccnc2)nc1Cl` [Compound 304, (4-chloro-2-pyridin-3-yl-thiazol-5-yl)-ethyl-carbamic Acid Tert-Butyl Ester], the pest or weed control at 200 ppm in assay [1] and in assay [2] was 80 to 100% in each case.

Turning to `CC[C@H](NC(=O)OC(C)(C)C)C(=O)N(C)c1sc(-c2cccnc2)nc1C` [Compound 312], the pest or weed control at 200 ppm in assay [1] and in assay [2] was 80 to 100% throughout.

In the case of `CCN(C(=O)CCSC)c1sc(-c2cccnc2)nc1Cl` [Compound 313, N-(4-chloro-2-pyridin-3-yl-thiazol-5-yl)-N-ethyl-3-methylsulfanyl-propionamide], the pest or weed control at 200 ppm in assay [1] and in assay [2] was 80 to 100% in each case.

Consider `CCN(C(=O)CC[S+](C)[O-])c1sc(-c2cccnc2)nc1Cl` (centres unmarked) [Compound 314], for which the pest or weed control at 200 ppm in assay [1] and in assay [2] was 80 to 100% in each case.

As for `CCN(C(=O)CCS(C)(=O)=O)c1sc(-c2cccnc2)nc1Cl` [Compound 315], the pest or weed control at 200 ppm in assay [1] and in assay [2] was 80 to 100% throughout.

Take `CCSCCC(=O)N(CC)c1sc(-c2cncc(F)c2)nc1C` [Compound 319]: the pest or weed control at 200 ppm in assay [1] and in assay [2] was 80 to 100% in each case.

Consider `CCN(C(=O)CCSCc1ccccc1)c1sc(-c2cccnc2)nc1C` [Compound 320], for which the pest or weed control at 200 ppm was 80 to 100% in assay [1] and less than 80% in assay [2].

Turning to `CCN(C(=O)CCSc1ccccc1)c1sc(-c2cccnc2)nc1C` [Compound 321], the pest or weed control at 200 ppm in assay [1] is 80 to 100%; in assay [2], less than 80%.

On to `CCSCCC(=O)N(CC)c1sc(-c2cccnc2)nc1C` [Compound 322], for which the pest or weed control at 200 ppm in assay [1] is 80 to 100%; in assay [2], less than 80%.

In the case of `CCN(C(=O)CCSC(C)C)c1sc(-c2cccnc2)nc1C` [Compound 323], the pest or weed control at 200 ppm in assay [1] was 80 to 100%; in assay [2], less than 80%.

Turning to `CCN(C(=O)CC(C)SC)c1sc(-c2cccnc2)nc1Cl` (centres unmarked) [Compound 324], the pest or weed control at 200 ppm in assay [1] was 80 to 100%; in assay [2], less than 80%.

Regarding `Cc1nc(-c2cccnc2)sc1NC(=O)C1=CC(=O)CC(C)(C)O1` [Compound 326], the pest or weed control at 200 ppm in assay [1] and in assay [2] was less than 80% throughout.

In the case of `Cc1nc(-c2cccnc2)sc1N(C)C(=O)C1=CC(=O)CC(C)(C)O1` [Compound 327], the pest or weed control at 200 ppm in assay [1] and in assay [2] was less than 80% in each case.

Turning to `CN(C(=O)C1=CC(=O)CC(C)(C)O1)c1sc(-c2cccnc2)nc1Cl` [Compound 328], the pest or weed control at 200 ppm in assay [1] and in assay [2] was less than 80% throughout.

With `CSCC(Cc1ccccc1)C(=O)Nc1sc(-c2cccnc2)nc1C` (centres unmarked) [Compound 329], the pest or weed control at 200 ppm in assay [1] and in assay [2] was less than 80% in each case.

Take `CSCC(Cc1ccccc1)C(=O)N(C)c1sc(-c2cccnc2)nc1C` (centres unmarked) [Compound 330]: the pest or weed control at 200 ppm in assay [1] and in assay [2] was less than 80% throughout.

For `CSCC(Cc1ccccc1)C(=O)N(C)c1sc(-c2cccnc2)nc1Cl` (centres unmarked) [Compound 331], the pest or weed control at 200 ppm in assay [1] is less than 80%; in assay [2], 80 to 100%.

`Cc1nc(C)n(CC(C)C(=O)Nc2sc(-c3cccnc3)nc2C)n1` (centres unmarked) [Compound 332]: the pest or weed control at 200 ppm in assay [1] is 80 to 100%; in assay [2], less than 80%.

In the case of `Cc1nc(C)n(CC(C)C(=O)N(C)c2sc(-c3cccnc3)nc2Cl)n1` (centres unmarked) [Compound 333], the “MYZUPE 200 ppm (Corrected % Control, rating)” value in assay [1] is on record as “A (80-100)”. In addition, in assay [2], the “BEMITA 200 ppm (Corrected % Control, rating)” value was “B (Less than 80)”.

For the compound `CC(=O)OC(C)C(=O)Nc1sc(-c2cccnc2)nc1C` (centres unmarked) [Compound 334], the pest or weed control at 200 ppm in assay [1] is 80 to 100%; in assay [2], less than 80%.

For `CC(=O)OC(C)C(=O)N(C)c1sc(-c2cccnc2)nc1C` (centres unmarked) [Compound 335], the “MYZUPE 200 ppm (Corrected % Control, rating)” value in assay [1] is on record as “A (80-100)”. The “BEMITA 200 ppm (Corrected % Control, rating)” value in assay [2] is on record as “A (80-100)”.

As for `CC(=O)OC(C)C(=O)N(C)c1sc(-c2cccnc2)nc1Cl` (centres unmarked) [Compound 336], the “MYZUPE 200 ppm (Corrected % Control, rating)” value in assay [1] is reported as “A (80-100)”. Moreover, the “BEMITA 200 ppm (Corrected % Control, rating)” value in assay [2] is “A (80-100)”.

In the case of `Cc1nc(-c2cccnc2)sc1NC(=O)C1CCN1C(=O)OC(C)(C)C` (centres unmarked) [Compound 337], the pest or weed control at 200 ppm in assay [1] is less than 80%; in assay [2], 80 to 100%.

`CN(C(=O)C1CCN1C(=O)OC(C)(C)C)c1sc(-c2cccnc2)nc1Cl` (centres unmarked) [Compound 339]: the “MYZUPE 200 ppm (Corrected % Control, rating)” value in assay [1] is recorded as “B (Less than 80)”. Further, in assay [2], the “BEMITA 200 ppm (Corrected % Control, rating)” value is given as “A (80-100)”.

As to `Cc1nc(-c2cccnc2)sc1NC(=O)c1cscn1` [Compound 340], the pest or weed control at 200 ppm in assay [1] is 80 to 100%; in assay [2], less than 80%.

As for `CN(C(=O)c1cscn1)c1sc(-c2cccnc2)nc1Cl` [Compound 341], in assay [1], the “MYZUPE 200 ppm (Corrected % Control, rating)” value was “B (Less than 80)”. The “BEMITA 200 ppm (Corrected % Control, rating)” value in assay [2] is “B (Less than 80)”.

Turning to `Cc1nc(-c2cccnc2)sc1NC(=O)c1cnco1` [Compound 342], the pest or weed control at 200 ppm in assay [1] and in assay [2] was less than 80% in each case.

`Cc1nc(-c2cccnc2)sc1N(C)C(=O)c1cnco1` [Compound 343]: the “MYZUPE 200 ppm (Corrected % Control, rating)” value in assay [1] was “A (80-100)”. Moreover, in assay [2], the “BEMITA 200 ppm (Corrected % Control, rating)” value is listed as “B (Less than 80)”.

Regarding `Cc1nc(-c2cccnc2)sc1NC(=O)c1ccns1` [Compound 344], the pest or weed control at 200 ppm in assay [1] and in assay [2] was less than 80% in each case.

In the case of `Cc1nc(-c2cccnc2)sc1N(C)C(=O)c1ccns1` [Compound 345], the “MYZUPE 200 ppm (Corrected % Control, rating)” value in assay [1] is reported as “A (80-100)”. Moreover, the “BEMITA 200 ppm (Corrected % Control, rating)” value in assay [2] is “A (80-100)”.

In the case of `CN(C(=O)c1ccns1)c1sc(-c2cccnc2)nc1Cl` [Compound 346], the “MYZUPE 200 ppm (Corrected % Control, rating)” value in assay [1] is on record as “B (Less than 80)”. Further, in assay [2], the “BEMITA 200 ppm (Corrected % Control, rating)” value is “A (80-100)”.

On to `CC(=O)c1ccc(C(=O)Nc2sc(-c3cccnc3)nc2C)s1` [Compound 347], for which the pest or weed control at 200 ppm in assay [1] and in assay [2] was less than 80% in each case.

As to `CCN(C(=O)C(C)C[S+](C)[O-])c1sc(-c2cccnc2)nc1Cl` (centres unmarked) [Compound 348], the pest or weed control at 200 ppm in assay [1] and in assay [2] was 80 to 100% in each case.

Turning to `CC(=O)c1ccc(C(=O)N(C)c2sc(-c3cccnc3)nc2C)s1` [Compound 350], the pest or weed control at 200 ppm in assay [1] and in assay [2] was less than 80% throughout.

Consider `CC(=O)c1ccc(C(=O)N(C)c2sc(-c3cccnc3)nc2Cl)s1` [Compound 351], for which the pest or weed control at 200 ppm in assay [1] and in assay [2] was less than 80% in each case.

Consider `CC(C)(C)OC(=O)Nc1sc(-c2cncc(F)c2)nc1F` [Compound 353, [4-fluoro-2-(5-fluoro-pyridin-3-yl)-thiazol-5-yl]-carbamic acid tert-butyl ester], for which the pest or weed control at 200 ppm in assay [1] is less than 80%; in assay [2], 80 to 100%.

In the case of `CSCC(C)C(=O)N(C)c1sc(-c2cncc(F)c2)nc1Br` (centres unmarked) [Compound 354], the pest or weed control at 200 ppm in assay [1] and in assay [2] was 80 to 100% each time.

On to `CSC(C)C(=O)N(C(=O)OC(C)(C)C)c1sc(-c2cccnc2)nc1C` (centres unmarked) [Compound 357], for which the pest or weed control at 200 ppm in assay [1] and in assay [2] was 80 to 100% each time.

Take `CCSCC(=O)N(C)c1sc(-c2cccnc2)nc1C` [Compound 358]: the pest or weed control at 200 ppm in assay [1] and in assay [2] was 80 to 100% each time.

Take `CSC(C)C(=O)N(C)c1sc(-c2cccnc2)nc1C` (centres unmarked) [Compound 360]: the pest or weed control at 200 ppm was 80 to 100% in assay [1] and less than 80% in assay [2].

On to `C=Cc1nc(-c2cncc(F)c2)sc1N(C)C(=O)OC(C)(C)C` [Compound 363, [2-(5-fluoro-pyridin-3-yl)-4-vinyl-thiazol-5-yl]-methyl-carbamic acid-tert-butyl ester], for which the pest or weed control at 200 ppm in assay [1] was less than 80%; in assay [2], 80 to 100%.

For `CSCC(C)C(=O)Nc1sc(-c2cncc(F)c2)nc1Cl` (centres unmarked) [Compound 364], the pest or weed control at 200 ppm in assay [1] and in assay [2] was 80 to 100% in each case.

Turning to `Cc1nc(-c2cccnc2)sc1N(C)C(=O)c1cscn1` [Compound 365], the pest or weed control at 200 ppm in assay [1] is 80 to 100%; in assay [2], less than 80%.

With `CSCC(=O)N(C)c1sc(-c2cccnc2)nc1C` [Compound 367], the pest or weed control at 200 ppm in assay [1] is 80 to 100%; in assay [2], less than 80%.

`CSCCCC(=O)N(C)c1sc(-c2cccnc2)nc1C` [Compound 368]: the pest or weed control at 200 ppm in assay [1] and in assay [2] was 80 to 100% throughout.

Take `CSCCCC(=O)N(C)c1sc(-c2cccnc2)nc1Cl` [Compound 371]: the pest or weed control at 200 ppm in assay [1] and in assay [2] was 80 to 100% throughout.

Take `CN(C(=O)c1cccc(SC(F)F)c1)c1sc(-c2cccnc2)nc1Cl` [Compound 382]: the pest or weed control at 200 ppm in assay [1] and in assay [2] was less than 80% each time.

For `CCS(=O)(=O)N1CCCC(C(=O)N(C)c2sc(-c3cccnc3)nc2Cl)C1` (centres unmarked) [Compound 394], the pest or weed control at 200 ppm in assay [1] and in assay [2] was 80 to 100% throughout.

On to `Cc1nc(-c2cccnc2)sc1N(C)C(=O)c1cccc(SC(F)F)c1` [Compound 397], for which the pest or weed control at 200 ppm in assay [1] and in assay [2] was 80 to 100% throughout.
